The pKi is −log10 of the Ki, conventionally taken in molar units.

These results are taken from US12692249B2, “WDR5 inhibitors and modulators” (Vanderbilt University, priority 2019, dated 2026).

In one assay the target is WDR5 (Homo sapiens, UniProt P61964). As to the kind of experiment: TR-FRET competition binding assay, displacement of 10mer-Thr-FAM MLL peptide probe from His-tagged WDR5. Particulars: WDR5-His tag (residues 24-334) 2 nM; 10mer-Thr-FAM 150 nM; 60 min, room temperature; read-out: Ki for Inhibition of WDR5 by TR-FRET assay. (In general: TR-FRET usually uses a lanthanide donor and a delayed reading to cut background.)

The test system of assay [1] is MV4:11 human cancer cell lines. As to the kind of experiment: Cellular viability / anti-proliferative assay, CellTiter-Glo, 5 day protocol. It is filed as cell-based. Particulars: read-out: GI50 on cellular proliferation of MV4:11 human cancer cell lines. In short, it runs like this: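 Luminescent ATP-based viability (CellTiter-Glo) after a 5-day exposure gave GI50 via sigmoidal fitting, averaged over two or more replicates. Compounds spanned 22 two-fold steps down from 30 μM at 0.3% DMSO, on 200 MV-4-11 cells per well grown in IMDM plus 10% FBS.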
For orientation: In ATP-based viability assays light output follows the ATP content of the culture.

Setting [2] is: Homo sapiens, MV4-11, 120 h, MV4:11 cells, 5 day incubation, CellTiter-Glo, mean of at least two replicates.

Each structure is given as a SMILES string. pKi: −log10 of the molar value. Read-outs that look alike come from different tables or passages of the source.

As to `COc1cc(CN2CCN3CCOC[C@@H]3C2)c2nccc(N3CCc4c(cc(Cn5ccnc5)cc4-c4cn(C)nc4C(F)(F)F)C3=O)c2c1` [Example 141, (S)-7-((1H-Imidazol-1-yl)methyl)-2-(8-((hexahydropyrazino[2,1-c][1,4]oxazin-8(1H)-yl)methyl)-6-methoxyquinolin-4-yl)-5-(1-methyl-3-(trifluoromethyl)-1H-pyrazol-4-yl)-3,4-dihydroisoquinolin-1(2H)-one], the pKi on WDR5 was 10.15. Further, in assay [1] (setting [2]), the GI50 was below 20 nM.

On to `COc1cc(CN2CCC(OC)CC2)c2nccc(N3CCc4c(cc(Cn5ccnc5)cc4-c4cn(C)nc4C(F)(F)F)C3=O)c2c1` [Example 142, 7-((1H-Imidazol-1-yl)methyl)-2-(6-methoxy-8-((4-methoxypiperidin-1-yl)methyl)quinolin-4-yl)-5-(1-methyl-3-(trifluoromethyl)-1H-pyrazol-4-yl)-3,4-dihydroisoquinolin-1(2H)-one], for which, on WDR5, the pKi was 10.44. For the same compound, in assay [1] (setting [2]), the GI50 was below 20 nM.

On to `COc1cc(CN2CCN(C3CCOCC3)CC2)c2nccc(N3CCc4c(cc(Cn5ccnc5)cc4-c4cn(C)nc4C(F)(F)F)C3=O)c2c1` [Example 143, 7-((1H-Imidazol-1-yl)methyl)-2-(6-methoxy-8-((4-(tetrahydro-2H-pyran-4-yl)piperazin-1-yl)methyl)quinolin-4-yl)-5-(1-methyl-3-(trifluoromethyl)-1H-pyrazol-4-yl)-3,4-dihydroisoquinolin-1(2H)-one], for which, on WDR5, the negative logarithm of the Ki (pKi) is 10.42. The GI50 in assay [1] (setting [2]) was below 20 nM.

Regarding `COCCN1CCN(Cc2cc(OC)cc3c(N4CCc5c(cc(Cn6ccnc6)cc5-c5cn(C)nc5C(F)(F)F)C4=O)ccnc23)CC1` [Example 144, 7-((1H-Imidazol-1-yl)methyl)-2-(6-methoxy-8-((4-(2-methoxyethyl)piperazin-1-yl)methyl)quinolin-4-yl)-5-(1-methyl-3-(trifluoromethyl)-1H-pyrazol-4-yl)-3,4-dihydroisoquinolin-1(2H)-one], the pKi at WDR5 is 10.33. Further, the GI50 in assay [1] (setting [2]) is below 20 nM.

As for `CCc1cc(OC)cc2c(N3CCc4c(cc(Cn5ccnc5)cc4-c4cn(C)nc4C(F)(F)F)C3=O)ccnc12` [Example 149, 7-((1H-Imidazol-1-yl)methyl)-2-(8-ethyl-6-methoxyquinolin-4-yl)-5-(1-methyl-3-(trifluoromethyl)-1H-pyrazol-4-yl)-3,4-dihydroisoquinolin-1(2H)-one], on WDR5, the negative-log Ki (pKi) was 10.46. In addition, in assay [1] (setting [2]), the GI50 worked out at 75 nM.

Take `COCc1cc(OC)cc2c(N3CCc4c(cc(Cn5ccnc5)cc4-c4cn(C)nc4C(F)(F)F)C3=O)ccnc12` [Example 150, 7-((1H-Imidazol-1-yl)methyl)-2-(6-methoxy-8-(methoxymethyl)quinolin-4-yl)-5-(1-methyl-3-(trifluoromethyl)-1H-pyrazol-4-yl)-3,4-dihydroisoquinolin-1(2H)-one]: the pKi on WDR5 is 10.60. The GI50 in assay [1] (MV4:11 cells, 5 day incubation, CellTiter-Glo, mean of at least two replicates) turned out to be 27 nM.

As for `COc1cc(C2=CCOCC2)c2nc(C)cc(N3CCc4c(cc(Cn5ccnc5)cc4-c4cn(C)nc4C(F)(F)F)C3=O)c2c1` [Example 151, 7-((1H-imidazol-1-yl)methyl)-2-(8-(3,6-dihydro-2H-pyran-4-yl)-6-methoxy-2-methylquinolin-4-yl)-5-(1-methyl-3-(trifluoromethyl)-1H-pyrazol-4-yl)-3,4-dihydroisoquinolin-1(2H)-one], the pKi on WDR5 is above 10.70. In addition, the GI50 in assay [1] (setting [2]) was 55 nM.

Take `CCc1cc(CCC(=O)N2CCOCC2)c2nc(C)cc(N3CCc4c(cc(Cn5ccnc5)cc4-c4cn(C)nc4C(F)(F)F)C3=O)c2c1` [Example 153, 7-((1H-Imidazol-1-yl)methyl)-2-(6-ethyl-2-methyl-8-(3-morpholino-3-oxopropyl)quinolin-4-yl)-5-(1b-methyl-3-(trifluoromethyl)-1H-pyrazol-4-yl)-3,4-dihydroisoquinolin-1(2H)-one]: the negative logarithm of the Ki (pKi) on WDR5 is 10.66. For the same compound, the GI50 in assay [1] (setting [2]) amounted to 47 nM.

Regarding `COc1cc2c(N3CCc4c(cc(Cn5ccnc5)cc4-c4cn(C)nc4C(F)(F)F)C3=O)cc(C)cc2nc1C` [Example 155, 7-((1H-Imidazol-1-yl)methyl)-2-(3-methoxy-2,7-dimethylquinolin-5-yl)-5-(1-methyl-3-(trifluoromethyl)-1H-pyrazol-4-yl)-3,4-dihydroisoquinolin-1(2H)-one], the pKi on WDR5 is 10.54. Further, the GI50 in assay [1] (setting [2]) was below 20 nM.

Regarding `CCc1cc(COC)c2nc(C)cc(N3CCc4c(cc(Cn5ccnc5)cc4-c4cn(C)nc4C(F)(F)F)C3=O)c2c1` [Example 156, 7-((1H-Imidazol-1-yl)methyl)-2-(6-ethyl-8-(methoxymethyl)-2-methylquinolin-4-yl)-5-(1-methyl-3-(trifluoromethyl)-1H-pyrazol-4-yl)-3,4-dihydroisoquinolin-1(2H)-one], at WDR5, the pKi is 10.70. Besides, the GI50 in assay [1] (setting [2]) worked out at 28 nM.

`COc1cc(C2CCN(C)CC2)c2nc(C)cc(N3CCc4c(cc(Cn5ccnc5)cc4-c4cn(C)nc4C(F)(F)F)C3=O)c2c1` [Example 157, 7-((1H-Imidazol-1-yl)methyl)-2-(6-methoxy-2-methyl-8-(1-methylpiperidin-4-yl)quinolin-4-yl)-5-(1-methyl-3-(trifluoromethyl)-1H-pyrazol-4-yl)-3,4-dihydroisoquinolin-1(2H)-one]: the pKi at WDR5 was above 10.70. The GI50 in assay [1] (setting [2]) was below 20 nM.

In the case of `CCc1cc(C(=O)Nc2ccncc2)c2nccc(N3CCc4c(cc(Cn5ccnc5)cc4-c4cn(C)nc4C(F)(F)F)C3=O)c2c1` [Example 158, 4-(7-((1H-Imidazol-1-yl)methyl)-5-(1-methyl-3-(trifluoromethyl)-1H-pyrazol-4-yl)-1-oxo-3,4-dihydroisoquinolin-2(1H)-yl)-6-ethyl-N-(pyridin-4-yl)quinoline-8-carboxamide], on WDR5, the negative-log Ki (pKi) was above 10.70. Further, in assay [1] (setting [2]), the GI50 was found to be 31 nM.

In the case of `COc1cc(COC2CCC2)c2nccc(N3CCc4c(cc(Cn5ccnc5)cc4-c4cn(C)nc4C(F)(F)F)C3=O)c2c1` [Example 159, 7-((1H-Imidazol-1-yl)methyl)-2-(8-(cyclobutoxymethyl)-6-methoxyquinolin-4-yl)-5-(1-methyl-3-(trifluoromethyl)-1H-pyrazol-4-yl)-3,4-dihydroisoquinolin-1(2H)-one], on WDR5, the pKi was 10.57. Besides, the GI50 in assay [1] (setting [2]) is 159 nM.

For `CCc1cc(C(=O)Nc2ncco2)c2nccc(N3CCc4c(cc(Cn5ccnc5)cc4-c4cn(C)nc4C(F)(F)F)C3=O)c2c1` [Example 160, 4-(7-((1H-Imidazol-1-yl)methyl)-5-(1-methyl-3-(trifluoromethyl)-1H-pyrazol-4-yl)-1-oxo-3,4-dihydroisoquinolin-2(1H)-yl)-6-ethyl-N-(oxazol-2-yl)quinoline-8-carboxamide], the pKi on WDR5 is above 10.70. Besides, in assay [1] (setting [2]), the GI50 was below 20 nM.

Turning to `COc1cc(C2CCOCC2)c2nc(C)cc(N3CCc4c(cc(Cn5ccnc5)cc4-c4cn(C)nc4C(F)(F)F)C3=O)c2c1` [Example 165, 7-((1H-Imidazol-1-yl)methy)-2-(6-methoxy-2-methyl-8-(tetrahydro-2H-pyran-4-yl)quinolin-4-yl)-5-(1-methyl-3-(trifluoromethyl)-1H-pyrazol-4-yl)-3,4-dihydroisoquinolin-1(2H)-one], the pKi at WDR5 was 10.38. In addition, the GI50 in assay [1] (Homo sapiens, MV4-11, 120 h) came to 129 nM.

Consider `COc1cc(COC2CC2)c2nccc(N3CCc4c(cc(Cn5ccnc5)cc4-c4cn(C)nc4C(F)(F)F)C3=O)c2c1` [Example 167, 7-((1H-Imidazol-1-yl)methyl)-2-(8-(cyclopropoxymethyl)-6-methoxyquinolin-4-yl)-5-(1-methyl-3-(trifluoromethyl)-1H-pyrazol-4-yl)-3,4-dihydroisoquinolin-1(2H)-one], for which the pKi on WDR5 is 10.47. Also, in assay [1] (Homo sapiens, MV4-11, 120 h), the GI50 turned out to be 106 nM.

As to `COc1cc(COC2CCN(C)CC2)c2nccc(N3CCc4c(cc(Cn5ccnc5)cc4-c4cn(C)nc4C(F)(F)F)C3=O)c2c1` [Example 169, 7-((1H-Imidazol-1-yl)methyl)-2-(6-methoxy-8-(((1-methylpiperidin-4-yl)oxy)methyl)quinolin-4-yl)-5-(1-methyl-3-(trifluoromethyl)-1H-pyrazol-4-yl)-3,4-dihydroisoquinolin-1(2H)-one], on WDR5, the pKi was above 10.70. In addition, in assay [1] (setting [2]), the GI50 is below 20 nM.

Take `CCc1cc(C(=O)NC2CCOCC2)c2nccc(N3CCc4c(cc(Cn5ccnc5)cc4-c4cn(C)nc4C(F)(F)F)C3=O)c2c1` [Example 171, 4-(7-((1H-Imidazol-1-yl)methyl)-5-(1-methyl-3-(trifluoromethyl)-1H-pyrazol-4-yl)-1-oxo-3,4-dihydroisoquinolin-2(1H)-yl)-6-ethyl-N-(tetrahydro-2H-pyran-4-yl)quinoline-8-carboxamide]: the pKi at WDR5 was above 10.70. Besides, the GI50 in assay [1] (setting [2]) was below 20 nM.

For `CCc1cc(C(=O)NC2CC2)c2nccc(N3CCc4c(cc(Cn5ccnc5)cc4-c4cn(C)nc4C(F)(F)F)C3=O)c2c1` [Example 172, 4-(7-((1H-Imidazol-1-yl)methyl)-5-(1-methyl-3-(trifluoromethyl)-1H-pyrazol-4-yl)-1-oxo-3,4-dihydroisoquinolin-2(1H)-yl)-N-cyclopropyl-6-ethylquinoline-8-carboxamide], the pKi on WDR5 was above 10.70. Besides, in assay [1] (setting [2]), the GI50 was below 20 nM.

On to `CCc1cc(C(=O)NCc2cnccn2)c2nccc(N3CCc4c(cc(Cn5ccnc5)cc4-c4cn(C)nc4C(F)(F)F)C3=O)c2c1` [Example 173, 4-(7-((1H-Imidazol-1-yl)methyl)-5-(1-methyl-3-(trifluoromethyl)-1H-pyrazol-4-yl)-1-oxo-3,4-dihydroisoquinolin-2(1H)-yl)-6-ethyl-N-(pyrazin-2-ylmethyl)quinoline-8-carboxamide], for which the negative-log Ki (pKi) at WDR5 is above 10.70. For the same compound, in assay [1] (setting [2]), the GI50 was below 20 nM.
